Reference: patent publication US20260130933A1, “PHARMACEUTICAL COMPOSITION FOR PREVENTION OR TREATMENT OF NEPHROPATHY AND/OR DIABETES MELLITUS, COMPRISING ENAVOGLIFLOZIN” (DAEWOONG PHARMACEUTICAL CO., LTD., priority 2022, published 2026)

Assay: Example 2: phase 3 trial, enavogliflozin 0.3 mg vs dapagliflozin 10 mg once a day for 24 weeks added to metformin in patients with type 2 diabetes (same efficacy, exploratory and safety endpoints)
Format: in vivo, human
Method: Subjects who met the inclusion/exclusion criteria were administered a placebo of the clinical trial drug under single-blind (subject blinding) conditions during a 2-week run-in period while continuing to receive metformin. […] The randomized subjects were administered two tablets of the clinical trial drug for each administration group once a day, and then visited the institution at weeks 6, 12, 18, and 24 during the 24-week administration period to conduct efficacy and safety evaluations.
• 1. Change in HbA1c at week 24 after administration of clinical trial drug compared to Visit 2 (randomization)
• 1. Change in HbA1c at each time point of weeks 6, 12, and 18 after administration of clinical trial drug compared to Visit 2 (randomization) • 2. Change in FPG at each time point of weeks 6, 12, 18, and 24 after administration of clinical trial drug compared to Visit 2 (randomization) • 3. Proportion of subjects achieving HbA1c<7% at each time point of weeks 6, 12, 18, and 24 after administration of clinical trial drug • 4. Proportion of subjects achieving HbA1c<6.5% at each time point of weeks 6, 12, 18, and 24 after administration of clinical trial drug • 5. Proportion of subjects achieving therapeutic response (HbA1c change (HbA1c at Visit 2-HbA1c at each evaluation time point)>0.5% or HbA1c<7% at each evaluation time point compared to Visit 2 (randomization)) at each time point of weeks 6, 12, 18 and 24 after administration of clinical trial drug
• 1. Change in fasting c-peptide at each time point of weeks 6, 12, 18, and 24 after administration of clinical trial drug compared to Visit 2 (randomization) • 2. Change in body weight at each time point of weeks 6, 12, 18, and 24 after administration of clinical trial drug compared to Visit 2 (randomization) • 3. Change in fasting lipid concentration (total cholesterol, LDL-C, HDL-C, and triglycerides) at each time point of weeks 6, 12, 18, and 24 after administration of clinical trial drug compared to Visit 2 (randomization) • 4. Changes in systolic or diastolic blood pressure at each time point of weeks 6, 12, 18, and 24 after administration of clinical trial drug compared to Visit 2 (randomization) • 5. Changes in β-cell function and insulin resistance measured by HOMA-β and HOMA-IR at each time point of weeks 6, 12, 18, and 24 after administration of clinical trial drug compared to Visit 2 (randomization) • 6. Changes in renal function-related indicators (UACR, UGCR) measured by UACR at each time point of weeks 6, 12, 18, and 24 after administration of clinical trial drug compared to Visit 2 (randomization) • 7. Changes in obesity-related indicators (adiponectin, leptin) at each time point of weeks 6, 12, 18, and 24 after administration of clinical trial drug compared to Visit 2 (randomization)

For CCOc1ccc(Cc2cc([C@@H]3O[C@H](CO)[C@@H](O)[C@H](O)[C@H]3O)ccc2Cl)cc1 [Dapagliflozin, reference compound], the “HOMA-β change from baseline, Median” value (Week 18, PPS) was 9.80, the “HOMA-β, Mean (SD)” value (Week 18, PPS) was 58.55 and the “HOMA-β, Median” value (Week 18, PPS) was 51.80. For the same compound, the “Leptin change from baseline, ANCOVA LS mean (SE)” value (Week 18, PPS) was -1.23 ng/mL, the “Leptin change from baseline, Mean (SD)” value (Week 18, PPS) was -1.20 ng/mL and the “Leptin change from baseline, Median” value (Week 18, PPS) was -1.37 ng/mL. The “Leptin, Mean (SD)” value (Week 18, PPS) was 10.72 ng/mL, the “Leptin, Median” value (Week 18, PPS) was 6.16 ng/mL and the “UACR change from baseline, ANCOVA LS mean (SE)” value (Week 18, PPS) was -12.95 g/kg. For the same compound, the “UACR change from baseline, Mean (SD)” value (Week 18, PPS) was -20540 mg/kg, the “UACR change from baseline, Median” value (Week 18, PPS) was -1.75 g/kg and the “UACR, Mean (SD)” value (Week 18, PPS) was 37260 mg/kg. For the same compound, the “UACR, Median” value (Week 18, PPS) was 11.60 g/kg, the “UGCR change from baseline, ANCOVA LS mean (SE)” value (Week 18, PPS) was 42.72 mg/mg and the “UGCR change from baseline, Mean (SD)” value (Week 18, PPS) was 41.06 mg/mg. For the same compound, the “UGCR change from baseline, Median” value (Week 18, PPS) was 40.72 mg/mg, the “UGCR, Mean (SD)” value (Week 18, PPS) was 43.00 mg/mg and the “UGCR, Median” value (Week 18, PPS) was 40.86 mg/mg. For the same compound, the “HDL-C change from baseline, ANCOVA LS mean (SE)” value (Week 18, mPPS1) was 3.08(0.67) mg/dL, the “HDL-C change from baseline, Mean (SD)” value (Week 18, mPPS1) was 3.17(5.82) mg/dL and the “HDL-C change from baseline, Median” value (Week 18, mPPS1) was 2.00 mg/dL. For the same compound, the “HDL-C, Mean (SD)” value (Week 18, mPPS1) was 49.93(9.16) mg/dL, the “HDL-C, Median” value (Week 18, mPPS1) was 49.00 mg/dL and the “LDL-C change from baseline, ANCOVA LS mean (SE)” value (Week 18, mPPS1) was 2.58(1.89) mg/dL. For the same compound, the “LDL-C change from baseline, Mean (SD)” value (Week 18, mPPS1) was 3.27(20.01) mg/dL, the “LDL-C change from baseline, Median” value (Week 18, mPPS1) was 3.00 mg/dL and the “LDL-C, Mean (SD)” value (Week 18, mPPS1) was 79.71(26.69) mg/dL. For the same compound, the “LDL-C, Median” value (Week 18, mPPS1) was 80.00 mg/dL, the “Triglycerides change from baseline, ANCOVA LS mean (SE)” value (Week 18, mPPS1) was 1.88(6.04) mg/dL and the “Triglycerides change from baseline, Mean (SD)” value (Week 18, mPPS1) was −4.10(62.62) mg/dL. The “Triglycerides change from baseline, Median” value (Week 18, mPPS1) was 1.00 mg/dL, the “Triglycerides, Mean (SD)” value (Week 18, mPPS1) was 130.88(70.92) mg/dL and the “Triglycerides, Median” value (Week 18, mPPS1) was 110.00 mg/dL. For the same compound, the “Diastolic blood pressure change from baseline, ANCOVA LS mean (SE)” value (Week 18, mPPS2) was −4.10 mmHg, the “Diastolic blood pressure change from baseline, Mean (SD)” value (Week 18, mPPS2) was −3.94 mmHg and the “Diastolic blood pressure change from baseline, Median” value (Week 18, mPPS2) was −2.50 mmHg. For the same compound, the “Diastolic blood pressure, Mean (SD)” value (Week 18, mPPS2) was 72.08 mmHg, the “Diastolic blood pressure, Median” value (Week 18, mPPS2) was 71.00 mmHg and the “Systolic blood pressure change from baseline, ANCOVA LS mean (SE)” value (Week 18, mPPS2) was −5.97(1.15) mmHg. The “Systolic blood pressure change from baseline, Mean (SD)” value (Week 18, mPPS2) was −5.43(12.97) mmHg, the “Systolic blood pressure change from baseline, Median” value (Week 18, mPPS2) was −5.00 mmHg and the “Systolic blood pressure, Mean (SD)” value (Week 18, mPPS2) was 122.27(12.91) mmHg. For the same compound, the “Systolic blood pressure, Median” value (Week 18, mPPS2) was 122.00 mmHg, the Adiponectin change from baseline, ANCOVA LS mean (SE) (Week 24, PPS) was 1.69 µg/mL and the Adiponectin change from baseline, Mean (SD) (Week 24, PPS) was 1.72 µg/mL. For the same compound, the “Adiponectin change from baseline, Median” value (Week 24, PPS) was 1.06 ng/mL, the Adiponectin, Mean (SD) (Week 24, PPS) was 8.35 µg/mL and the Adiponectin, Median (Week 24, PPS) was 7.19 µg/mL. For the same compound, the “HOMA-IR change from baseline, ANCOVA LS mean (SE)” value (Week 24, PPS) was −1.31, the “HOMA-IR change from baseline, Mean (SD)” value (Week 24, PPS) was −1.47 and the “HOMA-IR change from baseline, Median” value (Week 24, PPS) was −1.17. The “HOMA-IR, Mean (SD)” value (Week 24, PPS) was 2.39.
